Data on 17 compounds can be found in PubChem BioAssay AID248 (DTP/NCI, 2004).

Where “and” joins values, the source holds several entries; their conditions need not be identical. Identical values can stand only once. Toxic doses and inconclusive results are not listed.

This assay relates to L1210 leukemia ip in BDF1 mice, survival T/C. Description: NCI In Vivo Anticancer Drug Screen. Data for tumor model L1210 Leukemia (intraperitoneal) in B6D2F1 (BDF1) mice. The conditions noted are these: endpoint: mean survival time, higher = longer survival. The procedure, abridged: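 Each compound was tested against a transplantable tumor grown in mice. The endpoint was survival, with treated animals benchmarked against vehicle controls as a simple ratio.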

[1] abbreviates: dose: 25.0 mg/kg/injection, schedule: Q01DX009 (ip), vehicle: saline with Tween-80.
[2] abbreviates: dose: 50.0 mg/kg/injection, schedule: Q01DX009 (ip), vehicle: saline with Tween-80.
[3] abbreviates: dose: 100.0 mg/kg/injection, schedule: Q04DX003 (ip), vehicle: saline with Tween-80.
Setting [4] is: dose: 200.0 mg/kg/injection, schedule: Q01DX009 (ip), vehicle: saline with Tween-80.
[5] abbreviates: dose: 200.0 mg/kg/injection, schedule: Q04DX003 (ip), vehicle: saline with Tween-80.
Where [6] appears, read: dose: 400.0 mg/kg/injection, schedule: Q01DX009 (ip), vehicle: saline with Tween-80.
Setting [7] is: dose: 400.0 mg/kg/injection, schedule: Q04DX003 (ip), vehicle: saline with Tween-80.
Where [8] appears, read: dose: 100.0 mg/kg/injection, schedule: Q01DX009 (ip), vehicle: saline sonified.
Setting [9] is: dose: 100.0 mg/kg/injection, schedule: Q04DX003 (ip), vehicle: Klucel (hydroxypropylcellulose) (HPC).
Where [10] appears, read: dose: 200.0 mg/kg/injection, schedule: Q01DX009 (ip), vehicle: saline sonified.
[11] abbreviates: dose: 200.0 mg/kg/injection, schedule: Q04DX003 (ip), vehicle: Klucel (hydroxypropylcellulose) (HPC).
Where [12] appears, read: dose: 25.0 mg/kg/injection, schedule: Q04DX003 (ip), vehicle: saline with Tween-80.
[13] abbreviates: dose: 100.0 mg/kg/injection, schedule: Q01DX001 (ip), vehicle: Klucel (hydroxypropylcellulose) (HPC).
Setting [14] is: dose: 400.0 mg/kg/injection, schedule: Q04DX003 (ip), vehicle: Klucel (hydroxypropylcellulose) (HPC).
Setting [15] is: dose: 100.0 mg/kg/injection, schedule: Q01DX009 (ip), vehicle: saline.
Where [16] appears, read: dose: 100.0 mg/kg/injection, schedule: Q01DX009 (ip), vehicle: saline with Tween-80.

As to `Cc1cc(Cl)ccc1NC(=O)Oc1cc(C)c(Cl)c(C)c1Cl`, the T/C runs as follows: under setting [1], 100 % of control and 90 % of control; under setting [2], 95 % of control and 103 % of control; (dose: 100.0 mg/kg/injection, schedule: Q01DX001 (ip), vehicle: saline with Tween-80) 94 % of control; under setting [3], 93 % of control and 109 % of control; (dose: 200.0 mg/kg/injection, schedule: Q01DX001 (ip), vehicle: saline with Tween-80) 97 % of control; under setting [4], 97 % of control and 105 % of control. Further, the T/C under setting [5] is 97 % of control and 108 % of control; the T/C (dose: 400.0 mg/kg/injection, schedule: Q01DX001 (ip), vehicle: saline with Tween-80) is 101 % of control; the T/C under setting [6] is 90 % of control; the T/C under setting [7] was 103 % of control and 113 % of control.
Consider `O=C(O)c1cc(C(Cl)(Cl)Cl)ccc1C(Cl)(Cl)Cl`, for which the T/C is, setting by setting: (dose: 50.0 mg/kg/injection, schedule: Q01DX009 (ip), vehicle: saline sonified) 95 % of control; (dose: 50.0 mg/kg/injection, schedule: Q04DX003 (ip), vehicle: Klucel (hydroxypropylcellulose) (HPC)) 97 % of control; under setting [8], 101 % of control; under setting [9], 96 % of control; under setting [10], 98 % of control; under setting [11], 103 % of control.
As for `O=C1OC(c2ccccc2)(C2(c3ccccc3)OC(=O)c3ccccc32)c2ccccc21` (stereo not given), the T/C was 97 % of control under setting [12]; 97 % of control (dose: 50.0 mg/kg/injection, schedule: Q04DX003 (ip), vehicle: saline with Tween-80); 90 % of control under setting [3].
Regarding `CS(=O)(=O)OCCN(CCOS(C)(=O)=O)c1ccc(C=Nc2ccc(C(=O)O)c(O)c2)cc1`, the T/C was 117 % of control (dose: 6.25 mg/kg/injection, schedule: Q04DX003 (ip), vehicle: saline with Tween-80); 168 % of control (dose: 12.0 mg/kg/injection, schedule: Q01DX009 (ip), vehicle: saline with Tween-80); 112 % of control (dose: 16.5 mg/kg/injection, schedule: Q04DX003 (ip), vehicle: saline with Tween-80); 170 % of control (dose: 18.0 mg/kg/injection, schedule: Q01DX009 (ip), vehicle: saline with Tween-80); 121 % of control under setting [12]; 113 % of control (dose: 37.5 mg/kg/injection, schedule: Q04DX003 (ip), vehicle: saline with Tween-80).
As to `O=C1CCCCC12CCCC2`, the T/C under setting [8] is 97 % of control; the T/C under setting [10] was 103 % of control; the T/C (dose: 400.0 mg/kg/injection, schedule: Q01DX009 (ip), vehicle: saline sonified) was 93 % of control.
In the case of `O=C(Nc1ccc(Cl)cc1)c1cccc([N+](=O)[O-])c1O`, the T/C (dose: 6.25 mg/kg/injection, schedule: Q01DX009 (ip), vehicle: Klucel (hydroxypropylcellulose) (HPC)) was 102 % of control; the T/C (dose: 12.5 mg/kg/injection, schedule: Q01DX009 (ip), vehicle: Klucel (hydroxypropylcellulose) (HPC)) is 106 % of control; the T/C (dose: 25.0 mg/kg/injection, schedule: Q01DX009 (ip), vehicle: Klucel (hydroxypropylcellulose) (HPC)) is 95 % of control.
`O=S(=O)(C1CC1c1ccccc1)N(c1ccccc1)c1ccccc1` (stereo not given): the T/C runs as follows: under setting [13], 94 % of control; under setting [9], 93 % of control; (dose: 200.0 mg/kg/injection, schedule: Q01DX001 (ip), vehicle: Klucel (hydroxypropylcellulose) (HPC)) 100 % of control; under setting [11], 93 % of control; (dose: 400.0 mg/kg/injection, schedule: Q01DX001 (ip), vehicle: Klucel (hydroxypropylcellulose) (HPC)) 97 % of control; under setting [14], 93 % of control.
On to `O=[N+]([O-])c1ccc(N/N=C(/Cc2ccccc2)c2ccc(Cl)cc2)c([N+](=O)[O-])c1`, for which the T/C is 107 % of control (dose: 100.0 mg/kg/injection, schedule: Q01DX001 (ip), vehicle: saline); 86 % of control (dose: 200.0 mg/kg/injection, schedule: Q01DX001 (ip), vehicle: saline); 98 % of control (dose: 400.0 mg/kg/injection, schedule: Q01DX001 (ip), vehicle: saline).
Regarding `CCOC(=O)CCC(C)=O`, the T/C under setting [15] is 102 % of control; the T/C (dose: 200.0 mg/kg/injection, schedule: Q01DX009 (ip), vehicle: saline) is 96 % of control; the T/C (dose: 400.0 mg/kg/injection, schedule: Q01DX009 (ip), vehicle: saline) is 96 % of control.
As for `O=C1NCCN1c1cccc([N+](=O)[O-])c1`, the T/C by setting is: under setting [1], 108 % of control; under setting [2], 103 % of control; under setting [13], 96 % of control; under setting [16], 98 % of control.
Regarding `COC1C(O)=C2C(=O)OC(C)(O)/C=C/C=C\C=C/C=C/C(c3ccccc3)NC(=O)/C=C/C=C/C=C/C=C/C2(C)C1O` (stereo not given), the T/C is, setting by setting: (dose: 2.5 mg/kg/injection, schedule: Q01DX009 (ip), vehicle: saline) 94 % of control; (dose: 5.0 mg/kg/injection, schedule: Q01DX009 (ip), vehicle: saline) 100 % of control; (dose: 10.0 mg/kg/injection, schedule: Q01DX009 (ip), vehicle: saline) 95 % of control.
In the case of `O=[N+]([O-])/C=C/c1c(Cl)cccc1Cl`, the T/C by setting is: (dose: 6.25 mg/kg/injection, schedule: Q01DX005 (ip), vehicle: other) 108 % of control; (dose: 12.5 mg/kg/injection, schedule: Q01DX005 (ip), vehicle: other) 106 % of control; (dose: 25.0 mg/kg/injection, schedule: Q01DX005 (ip), vehicle: other) 93 % of control; (dose: 50.0 mg/kg/injection, schedule: Q01DX005 (ip), vehicle: saline with Tween-80) 101 % of control; (dose: 50.0 mg/kg/injection, schedule: Q01DX009 (ip), vehicle: Klucel (hydroxypropylcellulose) (HPC)) 95 % of control; (dose: 100.0 mg/kg/injection, schedule: Q01DX009 (ip), vehicle: Klucel (hydroxypropylcellulose) (HPC)) 93 % of control. Moreover, the T/C is, setting by setting: under setting [9], 94 % of control; under setting [11], 100 % of control; under setting [14], 103 % of control.
In the case of `CC(=O)NCC[N+](C)(C)C`, the T/C reads like this: (dose: 25.0 mg/kg/injection, schedule: Q01DX009 (ip), vehicle: saline) 100 % of control; (dose: 25.0 mg/kg/injection, schedule: Q04DX003 (ip), vehicle: saline) 97 % of control; (dose: 50.0 mg/kg/injection, schedule: Q01DX009 (ip), vehicle: saline) 100 % of control; (dose: 50.0 mg/kg/injection, schedule: Q04DX003 (ip), vehicle: saline) 95 % of control; under setting [15], 105 % of control; (dose: 100.0 mg/kg/injection, schedule: Q04DX003 (ip), vehicle: saline) 95 % of control.
As for `CCNC(C)(C)C(SS(=O)(=O)O)c1ccc(Cl)s1` (stereo not given), the T/C under setting [16] is 96 % of control; the T/C under setting [3] is 102 % of control; the T/C under setting [4] is 90 % of control; the T/C under setting [5] was 96 % of control; the T/C under setting [7] was 92 % of control.
`O=C(O)c1ccccc1C(=O)OO`: the T/C runs as follows: under setting [2], 97 % of control; under setting [16], 97 % of control; under setting [4], 97 % of control.
For `NC(CSS(=O)(=O)O)=NCCc1ccccn1`, the T/C (dose: 12.5 mg/kg/injection, schedule: Q04DX002 (ip), vehicle: Klucel (hydroxypropylcellulose) (HPC)) was 100 % of control; the T/C (dose: 25.0 mg/kg/injection, schedule: Q04DX002 (ip), vehicle: Klucel (hydroxypropylcellulose) (HPC)) is 88 % of control; the T/C (dose: 50.0 mg/kg/injection, schedule: Q04DX002 (ip), vehicle: Klucel (hydroxypropylcellulose) (HPC)) was 91 % of control; the T/C (dose: 400.0 mg/kg/injection, schedule: Q04DX002 (ip), vehicle: Klucel (hydroxypropylcellulose) (HPC)) is 90 % of control.
For `c1ccc(N2N=NC3C4CCC(C4)C32)cc1` (stereo not given), the T/C was 108 % of control under setting [16], 98 % of control under setting [4] and 104 % of control under setting [6].
